The record followed here is PubChem BioAssay AID1996.

Structures are written as SMILES. Values after ≈ are worked out from the molar mass of the structure shown.

The conditions of this data set: buffer; pH 7.4; 200.0 µM.
The solubility (kinetic) is the concentration staying in solution when a stock, usually in DMSO, is diluted into the medium. `Cc1ccc(NC(=O)Nc2cnccn2)cc1` returned a kinetic solubility of 14.4 µg/mL (≈ 63.1 µM).
The same measure for `CCCCCCCc1c(C#N)c(N)[nH]c(=S)c1C#N`: 31.5 µg/mL (≈ 115 µM); for `CC(C)C(C(=O)Nc1ccncc1)c1ccc(Cl)cc1` (stereo not drawn): > 43.3 µg/mL.
To `O=C1c2ccccc2C(=O)N1CC(O)COc1ccc(Cl)cc1` (stereo not drawn) belongs 6.1 µg/mL (≈ 18.4 µM); to `Cc1ccc(NC(=O)c2cnccn2)cc1S(=O)(=O)N1CCCCCC1`, 5.4 µg/mL (≈ 14.4 µM); to `O=C(Cc1c(Cl)cccc1Cl)NC1=NCCS1`, 19.2 µg/mL (≈ 66.4 µM).
To `Cn1c(=O)c2c(nc(NN=C3CCCC3)n2C)n(C)c1=O` belongs > 43.5 µg/mL.
As for `Cc1ccc(NC(=O)NC(=O)CN2CCC(C(N)=O)CC2)c(C)c1`, the solubility (kinetic) was > 49.9 µg/mL.
`CN(C)/C=N/c1ncc(C(=O)c2ccc(Cl)cc2Cl)s1`: the solubility (kinetic) was 41.6 µg/mL (≈ 127 µM).
The same measure for `O=c1c([N+](=O)[O-])cccn1Cc1cccc(Br)c1`: > 46.4 µg/mL; for `O=C(NCc1ccccc1Cl)C1CCN(c2cnccn2)CC1`: > 49.6 µg/mL; for `OC1CCN(CC(O)C(F)(F)F)CC1` (stereo not drawn): > 32 µg/mL.
`Cc1ccc(OCCn2cc(C=O)c3ccccc32)cc1` had a solubility (kinetic) of 5.3 µg/mL (≈ 19 µM).
`COc1ccc(NC(=O)C2C(c3ccccc3)C2(Cl)Cl)cc1` (stereo not drawn): the kinetic solubility is < 0.7 µg/mL.
To `COc1ccc(-c2cn3ccc(C)cc3n2)cc1` belongs 33.1 µg/mL (≈ 139 µM).
For `CC(CNC(=O)COC(=O)c1cccs1)c1ccccc1` (stereo not drawn), the solubility (kinetic) is > 45.5 µg/mL.
The same measure for `O=C(COC(=O)C1CCCCC1)NCc1ccc(Cl)cc1`: 31.7 µg/mL (≈ 102 µM); for `CCc1ccc(C(=O)Nc2ccc(C)c(NS(C)(=O)=O)c2)cc1`: 39.7 µg/mL (≈ 119 µM).
The same measure for `Nc1cc(=O)[nH]c(SCC(=O)Nc2cccc(S(=O)(=O)N3CCCCCC3)c2)n1`: 11.7 µg/mL (≈ 26.7 µM); for `O=C1NC(=Nc2cccnc2)S/C1=C\c1cccc(F)c1`: 3.2 µg/mL (≈ 10.7 µM); for `Cc1cccc(N2C(=NC(=O)c3ccccc3)SC3CS(=O)(=O)CC32)c1` (stereo not drawn): < 0.4 µg/mL.
To `CSCCC(NC(=O)c1cccc(C)c1)C(=O)O` (stereo not drawn) belongs > 40.1 µg/mL; to `Cc1ccc(-c2cc(C(=O)O)c3ccccc3n2)s1`, > 40.4 µg/mL; to `O=C(/C=C/c1ccco1)NC(=S)Nc1ccccc1`, 17.2 µg/mL (≈ 63.2 µM).
Consider `COc1ccc(NC(=S)NCc2cccnc2)cc1OC`, for which the kinetic solubility was > 45.5 µg/mL.
The same measure for `COc1ccccc1CNC(=O)c1ccc2ccccc2n1`: 15.8 µg/mL (≈ 54 µM); for `CC(C)(C)C1CCC(OC(=O)CN2CCCCC2)CC1` (stereo not drawn): 2.4 µg/mL (≈ 8.53 µM).
The same measure for `CCC(=O)Nc1c(-c2ccc3ccccc3c2)nc2ccccn12`: 45.7 µg/mL (≈ 145 µM); for `O=C(CSc1nc2ccccc2o1)NCC1CCCO1` (stereo not drawn): > 43.9 µg/mL.
The compound `Cc1ccc(NC(=O)CC2CCCC2)c(Br)c1` gave a kinetic solubility of 2.4 µg/mL (≈ 8.1 µM).
The same measure for `Cn1c(N)c(C(=O)COC(=O)/C=C/c2ccccc2F)c(=O)n(C)c1=O`: 5.5 µg/mL (≈ 15.2 µM); for `O=C(CSCc1ccc(Br)cc1)N1CCCC1`: > 47.1 µg/mL; for `Cc1cccc(-n2c(-c3ccccc3)nc3ccccc3c2=O)n1`: > 47 µg/mL.
To `CC(NC(=O)Nc1ccc(Cl)cc1)c1ccccc1` (stereo not drawn) belongs 1.9 µg/mL (≈ 6.92 µM); to `CCCCN(C(=O)COC(=O)c1ccccc1)c1c(N)n(CCC)c(=O)[nH]c1=O`, > 60.4 µg/mL.
To `CC(C)OCCCNc1ncnc2c1nc1n2CCCC1` belongs > 43.4 µg/mL; to `CC(C)C(NC(=O)c1ccco1)C(=O)NCc1ccc(C(=O)O)cc1` (stereo not drawn), > 51.7 µg/mL; to `COc1cccc(NC(=O)COC(=O)c2c(C)noc2C)c1`, > 45.6 µg/mL.
The compound `COc1ccc(NC(=O)c2ccccc2-c2ccccc2)c(C)c1` came in with a solubility (kinetic) of 7.2 µg/mL (≈ 22.7 µM).
To `Clc1ccc(NCc2cccnc2)cc1` belongs 29.9 µg/mL (≈ 137 µM).
To `CN(Cc1cccs1)C(=O)CNC(=O)c1ccco1` belongs > 41.7 µg/mL; to `O=C1c2nccnc2C(=O)N1c1ccc(C(F)(F)F)cc1`, 39.5 µg/mL (≈ 135 µM); to `COc1ccccc1C(=O)Nc1ccc(NC(=O)c2ccco2)cn1`, 0.7 µg/mL (≈ 2.08 µM).
The same measure for `CC(CN1C(C)CCCC1C)OC(=O)c1ccc(Cl)cc1` (stereo not drawn): > 46.5 µg/mL.
As for `c1ccc(Cn2c(NCc3ccncc3)nc3ccccc32)cc1`, the solubility (kinetic) was > 47.2 µg/mL.
As to `COC(=O)c1cc(S(=O)(=O)N2CCCCC2)c[nH]1`, the kinetic solubility was > 40.8 µg/mL.
To `CCCn1c2ccccc2c2cnn(CC(=O)NCCOC)c(=O)c21` belongs > 51.4 µg/mL; to `CC(SCc1ccccc1)C(=O)Nc1ccc(F)cc1` (stereo not drawn), > 43.4 µg/mL; to `COCc1[nH]c(=S)[nH]c(=O)c1C`, > 27.9 µg/mL.
To `COc1ccc(-n2c3c(cc(C#N)c2=O)C(=O)CCC3)cc1` belongs > 44.1 µg/mL.
The same measure for `COC(=O)c1c(NC(=O)C2CC2)sc(C(=O)Nc2ccccc2)c1C`: 1.7 µg/mL (≈ 4.74 µM).
The compound `COC(=O)c1ccc(NC(=O)C2CC(=O)OC2c2ccccc2)cc1` (stereo not drawn) came in with a solubility (kinetic) of 36 µg/mL (≈ 106 µM).
Consider `CC(=O)c1c(C)[nH]c(C(=O)CSc2ccc(F)cc2)c1C`, for which the solubility (kinetic) was 2.5 µg/mL (≈ 8.19 µM).
